These are literature values, as cited in paper PMC9788431, “Combination of Docking-Based and Pharmacophore-Based Virtual Screening Identifies Novel Agonists That Target the Urotensin Receptor” (Molecules, 2022).

What is called IC50 is the concentration that inhibits the measured activity by half. A word on the EC50: it is the concentration giving half of the maximal effect.

Values joined by “and” are separate entries in the source; they are usually repeats but may differ in a detail not shown here. Equal entries are not always repeated. Positions of bridges follow the written chain, without caps; N, C: chain ends. Non-standard residues stand in square brackets, D forms with d. Residues, ends and D or L forms follow the SMILES beside them. Phe(4-I) = N[C@@H](Cc1ccc(I)cc1)C(=O)O; dTle = CC(C)(C)[C@@H](N)C(=O)O

For data set [1], the target named is T1, UT receptor (Homo sapiens, UniProt Q9UKP6).
T1 construct: SNAP-tag; expressed in transfected cells; host or cells: 293A8 (HEK293A stably transfected with the UT receptor); inferred, the calcium-assay paragraph names no cells
T1 sequence (Q9UKP6 1-389): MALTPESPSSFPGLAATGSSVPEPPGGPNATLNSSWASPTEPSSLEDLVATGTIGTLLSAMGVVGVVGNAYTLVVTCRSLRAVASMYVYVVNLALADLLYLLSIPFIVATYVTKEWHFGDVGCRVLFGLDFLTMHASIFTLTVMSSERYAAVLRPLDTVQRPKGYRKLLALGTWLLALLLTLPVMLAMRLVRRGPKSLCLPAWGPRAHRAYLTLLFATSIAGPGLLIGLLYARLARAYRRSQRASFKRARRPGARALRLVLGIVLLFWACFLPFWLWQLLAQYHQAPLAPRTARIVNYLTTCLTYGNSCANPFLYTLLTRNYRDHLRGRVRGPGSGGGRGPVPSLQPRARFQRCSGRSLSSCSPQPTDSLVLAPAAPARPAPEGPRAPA
Set-up: method as in ChEMBL database and others. The following applies: antagonist; Table S1 benchmarking ligands; ref ChEMBL database and others; cited from earlier work.

Data set [2] concerns the target T1, UT receptor. The following applies: agonist; Table S1 benchmarking ligands; ref ChEMBL database and others; cited from earlier work.

Take `CN(CC(=O)N1CCCCC1CN1CCCC1)c1ccc(Cl)c(Cl)c1` (stereo not drawn) [CHEMBL254154]: in data set [1], the IC50 is 631 nM. In the case of `CN(C)CCCOc1ccc(CN2CC[C@H](NC(=O)c3ccc(Cl)c(Cl)c3)C2)cc1` [CHEMBL366221], the IC50 in data set [1] was 170 nM. Turning to `O=C(N[C@H]1CCN(Cc2ccc(OC3CCNCC3)c(Br)c2)C1)c1ccc(Cl)c(Cl)c1` [CHEMBL495075], the IC50 in data set [1] is 4 nM.

In the case of `COc1ccc([C@@H](CCCN(C)S(=O)(=O)c2cccs2)N2Cc3c(cccc3N3CCNCC3)C2=O)cc1OC` [CHEMBL565416], in data set [1], the IC50 is 410 nM.

Take `COc1ccc([C@H](CCCNS(=O)(=O)c2cccs2)N2C(=O)c3cccc(N4CCN([C@H](C)c5ccccc5)CC4)c3C2=O)cc1OC` [CHEMBL565580]: the IC50 in data set [1] is 260 nM.

`COc1ccc([C@@H](CCCNS(=O)(=O)c2cccs2)N2C(=O)c3cccc(N4CCNCC4)c3C2=O)cc1OC` [CHEMBL566366]: the IC50 in data set [1] is 500 nM. For `CCN1CCN(c2cccc3c2C(=O)N([C@H](CCCNS(=O)(=O)c2cccs2)c2ccc(OC)c(OC)c2)C3=O)CC1` [CHEMBL566433], the IC50 in data set [1] is 150 nM.

`CCN1CCN(c2cccc3c2CN([C@H](CCCNC(=O)c2cccs2)c2ccc(OC)c(OC)c2)C3=O)CC1` [CHEMBL567075]: the IC50 in data set [1] was 140 nM.

On to `CCN1CCN(c2cccc3c2CN([C@H](CCCNS(=O)(=O)c2cccs2)c2ccc(OC)c(OC)c2)C3=O)CC1` [CHEMBL567713], for which the IC50 in data set [1] was 8 nM.

Turning to `COc1ccc([C@@H](CCCNS(=O)(=O)c2cccs2)N2C(=O)c3cccc(N4CCN(C(C)C)CC4)c3C2=O)cc1OC` [CHEMBL567736], the concentration for half-maximal inhibition (IC50) in data set [1] was 150 nM. Turning to `COc1ccc([C@@H](CCCNS(=O)(=O)c2c(C)n[nH]c2C)N2C(=O)c3cccc(N4CCN([C@H](C)c5ccccc5)CC4)c3C2=O)cc1OC` [CHEMBL567759], the concentration for half-maximal inhibition (IC50) in data set [1] is 47 nM. As for `COc1ccc([C@@H](CCCNS(=O)(=O)c2cccs2)N2C(=O)c3cccc(N4CCN(C)CC4)c3C2=O)cc1OC` [CHEMBL567949], the IC50 in data set [1] was 220 nM. As to `CCN1CCN(c2cccc3c2CN([C@H](CCCNCc2cccs2)c2ccc(OC)c(OC)c2)C3=O)CC1` [CHEMBL568123], the IC50 in data set [1] was 59 nM. For `COc1ccc([C@@H](CCCNS(=O)(=O)c2cccs2)N2C(=O)c3cccc(N4CCN([C@H](C)c5ccccc5)CC4)c3C2=O)cc1OC` [CHEMBL568165], in data set [1], the IC50 was 240 nM. Regarding `COc1ccc([C@@H](CCCNS(=O)(=O)c2cccs2)N2Cc3c(cccc3N3CCN(C(C)C)CC3)C2=O)cc1OC` [CHEMBL568637], the IC50 in data set [1] was 53 nM. For `CSCC[C@H](NC(=O)CNC(=O)[C@@H](NC(=O)CNC(=O)[C@@H](NC(=O)[C@H](NC(=O)[C@H](CC(N)=O)NC(=O)[C@H](CCCNC(=N)N)NC(=O)[C@H](Cc1ccccc1)NC(=O)[C@@H](N)CO)C(C)(C)C)C(C)C)[C@@H](C)O)C(=O)N[C@@H](CCCCN)C(=O)N[C@@H](CCCCN)C(=O)N[C@H](C(=O)N[C@@H](CO)C(=O)N[C@@H](Cc1ccccc1)C(=O)N[C@@H](CCC(N)=O)C(=O)N[C@@H](CCCNC(=N)N)C(=O)N[C@@H](C)C(=O)N[C@@H](CCCCN)C(=O)N[C@@H](CO)C(=O)O)[C@@H](C)O` [CHEMBL1627325] (H-SFRN[dTle]VGTGMKKTSFQRAKS-OH), the EC50 in data set [2] was 3.47 nM. Turning to `CC(C)[C@H](NC(=O)[C@H](CS)NC(=O)[C@H](Cc1ccc(O)cc1)NC(=O)[C@H](CCCCN)NC(=O)[C@H](Cc1c[nH]c2ccccc12)NC(=O)[C@H](Cc1ccccc1)NC(=O)[C@H](C)NC(=O)[C@H](CC(=O)O)NC(=O)[C@H]1CCCN1C(=O)[C@@H](NC(=O)[C@@H](N)CCC(=O)O)[C@@H](C)O)C(=O)O` [CHEMBL2372895] (H-ET[dP]DAFWKYCV-OH), the EC50 in data set [2] is 233 nM. Consider `CC(C)[C@H](NC(=O)[C@H](CS)NC(=O)[C@H](Cc1ccc(O)cc1)NC(=O)[C@H](CCCCN)NC(=O)[C@H](Cc1c[nH]c2ccccc12)NC(=O)[C@H](Cc1ccccc1)NC(=O)[C@H](CS)NC(=O)[C@H](C)NC(=O)[C@H]1CCCN1C(=O)[C@@H](NC(=O)[C@@H](N)CCC(=O)O)[C@@H](C)O)C(=O)O` [CHEMBL2372896], for which the EC50 in data set [2] is 2.7 nM. Regarding `CC(C)[C@H](NC(=O)[C@H](CS)NC(=O)[C@H](Cc1ccc(O)cc1)NC(=O)[C@H](CCCCN)NC(=O)[C@H](Cc1c[nH]c2ccccc12)NC(=O)[C@H](Cc1ccccc1)NC(=O)[C@H](CS)NC(=O)[C@H](CC(=O)O)NC(=O)[C@H](C)NC(=O)[C@@H](NC(=O)[C@@H](N)CCC(=O)O)[C@@H](C)O)C(=O)O` [CHEMBL2372897] (H-ETADCFWKYCV-OH), the EC50 in data set [2] is 1.9 nM. In the case of `CC(C)[C@H](NC(=O)[C@H](CS)NC(=O)[C@H](Cc1ccc(O)cc1)NC(=O)[C@H](CCCCN)NC(=O)[C@H](Cc1c[nH]c2ccccc12)NC(=O)[C@H](Cc1ccccc1)NC(=O)[C@H](CS)NC(=O)[C@H](CC(=O)O)NC(=O)[C@H]1CCCN1C(=O)[C@@H](NC(=O)[C@H](C)N)[C@@H](C)O)C(=O)O` [CHEMBL2372899] (H-AT[dP]DCFWKYCV-OH), the 50% effective concentration (EC50) in data set [2] is 1.8 nM. For the compound `CC(C)[C@H](NC(=O)[C@H](CS)NC(=O)[C@H](Cc1ccc(O)cc1)NC(=O)[C@H](CCCCN)NC(=O)[C@H](Cc1c[nH]c2ccccc12)NC(=O)[C@H](C)NC(=O)[C@H](CS)NC(=O)[C@H](CC(=O)O)NC(=O)[C@H]1CCCN1C(=O)[C@@H](NC(=O)[C@@H](N)CCC(=O)O)[C@@H](C)O)C(=O)O` [CHEMBL2372901] (H-ET[dP]DCAWKYCV-OH), the concentration for a half-maximal effect (EC50) in data set [2] was 5.7 nM. For `CC(C)[C@H](NC(=O)[C@H](CS)NC(=O)[C@H](Cc1ccc(O)cc1)NC(=O)[C@H](CCCCN)NC(=O)[C@H](Cc1c[nH]c2ccccc12)NC(=O)[C@H](Cc1ccccc1)NC(=O)[C@H](CS)NC(=O)[C@H](CC(=O)O)NC(=O)[C@H]1CCCN1C(=O)[C@H](C)NC(=O)[C@@H](N)CCC(=O)O)C(=O)O` [CHEMBL2372902] (H-EA[dP]DCFWKYCV-OH), in data set [2], the EC50 was 3.3 nM. Regarding `CC(C)[C@H](NC(=O)[C@H](CS)NC(=O)[C@H](C)NC(=O)[C@H](CCCCN)NC(=O)[C@H](Cc1c[nH]c2ccccc12)NC(=O)[C@H](Cc1ccccc1)NC(=O)[C@H](CS)NC(=O)[C@H](CC(=O)O)NC(=O)[C@H]1CCCN1C(=O)[C@@H](NC(=O)[C@@H](N)CCC(=O)O)[C@@H](C)O)C(=O)O` [CHEMBL2372903] (H-ET[dP]DCFWKACV-OH), the EC50 in data set [2] was 193 nM. Turning to `C[C@H](NC(=O)[C@H](CS)NC(=O)[C@H](Cc1ccc(O)cc1)NC(=O)[C@H](CCCCN)NC(=O)[C@H](Cc1c[nH]c2ccccc12)NC(=O)[C@H](Cc1ccccc1)NC(=O)[C@H](CS)NC(=O)[C@H](CC(=O)O)NC(=O)[C@H]1CCCN1C(=O)[C@@H](NC(=O)[C@@H](N)CCC(=O)O)[C@@H](C)O)C(=O)O` [CHEMBL2372907] (H-ET[dP]DCFWKYCA-OH), in data set [2], the EC50 is 3.2 nM. With `COc1ccc(/C=C/C2=NN(CCCCN)C(=O)N(Cc3ccc(-c4ccccc4)cc3)c3ccccc32)cc1` [CHEMBL4071437], the half-maximal effective concentration (EC50) in data set [2] is 7.08 nM and 8.51 nM. Regarding `NCCCN1N=C(CCc2nc3ccccc3s2)c2ccccc2N(Cc2ccc3ccccc3c2)C1=O` [CHEMBL4076150], the EC50 in data set [2] was 6.17 nM and 10.7 nM.

In the case of `CC(C)[C@H](NC(=O)[C@@H]1CSSC[C@H](NC(=O)[C@@H](N)CC(=O)O)C(=O)N[C@@H](Cc2ccc(I)cc2)C(=O)N[C@@H](Cc2c[nH]c3ccccc23)C(=O)N[C@@H](CCCCN)C(=O)N[C@@H](Cc2ccc(O)cc2)C(=O)N1)C(=O)O` [CHEMBL4205274] (H-DC[Phe(4-I)]WKYCV-OH; disulfide 2-7), the EC50 in data set [2] is 191 nM.
